Source: patent publication US11072584B2, “Carbon monoxide releasing norbornenone compounds” (OTAGO INNOVATION LIMITED, priority 2015, dated 2021)
In brackets after ≈: the same amount, converted by molar mass. Structures can show the parent of a compound that is named as a salt.

tested on: not given; experiment: not given; conditions: not given

SMILES | melting point
Cc1c2c(c(C)c(-c3ccccc3)c1-c1ccccc1)C(=O)N(c1ccc(O)c([N+](=O)[O-])c1)C2=O [BP-11, 2-(4-Hydroxy-3-nitrophenyl)-4,7-dimethyl-5,6-diphenyl-1H-isoindole-1,3(2H)-dione] | > 250 °C
CC(=O)OC[C@H]1O[C@@H](Oc2ccc(N3C(=O)c4c(C)c(-c5ccccc5)c(-c5ccccc5)c(C)c4C3=O)cc2)[C@H](OC(C)=O)[C@@H](OC(C)=O)[C@@H]1OC(C)=O [BP-14, N-(4-O-(2,3,4,6-tetra-O-acetyl-β-D-glucopyranosyl)phenyl)-3,6-dimethyl-4,5-diphenyl-3,6-phthalimide] | 113 to 115 °C
CC(=O)OCCN1C(=O)c2c(C)c(-c3ccccc3)c(-c3ccccc3)c(C)c2C1=O [BP-16, 4,7-Dimethyl-2-(2-acetoxyethyl)-5,6-diphenyl-1H-isoindole-1,3(2H)-dione] | 155 °C
Cc1c2c(c(C)c(-c3ccccc3)c1-c1ccccc1)C(=O)N(CCC(=O)NCCNC(=O)OC(C)(C)C)C2=O [BP-18, Tert-Butyl (2-(3-(4,7-dimethyl-1,3-dioxo-5,6-diphenylisoindolin-2-yl)propanamido)ethyl)carbamate] | 183 to 185 °C
Cc1c2c(c(C)c(-c3ccccc3)c1-c1ccccc1)C(=O)N(CCNC(=O)OC(C)(C)C)C2=O [BP-20, Tert-Butyl (2-(4,7-dimethyl-1,3-dioxo-5,6-diphenylisoindolin-2-yl)ethyl)carbamate] | 181 to 182 °C
Cc1c2c(c(C)c(-c3ccccc3)c1-c1ccccc1)C(=O)N(CCN(CCNC(=O)OC(C)(C)C)C(=O)OC(C)(C)C)C2=O [BP-22, Tert-Butyl (3-((tert-butoxycarbonyl)amino)ethyl)(2-(4,7-dimethyl-1,3-dioxo-5,6-diphenylisoindolin-2-yl)ethyl)carbamate] | 202 to 205 °C
CC12C(=O)C(C)(C(c3ccccc3)=C1c1ccccc1)C1(Cl)C(=O)N(c3ccccc3)C(=O)C21 (stereo not shown) [oCOm-2, 3a-Chloro-3a,4,7,7a-tetrahydro-4,7-dimethyl-2,5,6-triphenyl-4,7-methano-1H-isoindole-1,3,8(2H)-trione] | 182 to 184 °C
CC12C(=O)C(C)(C(c3ccccc3)=C1c1ccccc1)C1(Sc3ccccc3)C(=O)N(c3ccccc3)C(=O)C21 (stereo not shown) [oCOm-4, 3a-Phenylthio-3a,4,7,7a-tetrahydro-4,7-dimethyl-2,5,6-triphenyl-4,7-methano-1H-isoindole-1,3,8(2H)-trione] | 193 °C
CC12C(=O)C(C)(C(c3ccccc3)=C1c1ccccc1)C1([S+]([O-])c3ccccc3)C(=O)N(c3ccccc3)C(=O)C21 (stereo not shown) [oCOm-5, 3a-Phenylsulfinyl-3a,4,7,7a-tetrahydro-4,7-dimethyl-2,5,6-triphenyl-4,7-methano-1H-isoindole-1,3,8(2H)-trione] | 186 °C
CC12C(=O)C(C)(C(c3ccccc3)=C1c1ccccc1)C1(S(=O)(=O)c3ccccc3)C(=O)N(c3ccccc3)C(=O)C21 (stereo not shown) [oCOm-6, 3a-Phenylsulfonyl-3a,4,7,7a-tetrahydro-4,7-dimethyl-2,5,6-triphenyl-4,7-methano-1H-isoindole-1,3,8(2H)-trione] | 106 °C
CC12C(=O)C(C)(C(c3ccccc3)=C1c1ccccc1)C1(Br)C(=O)N(c3ccc(O)c([N+](=O)[O-])c3)C(=O)C21 (stereo not shown) [oCOm-11, 3a-Bromo-3a,4,7,7a-tetrahydro-4,7-dimethyl-2-(4-hydroxy-3-nitrophenyl)-5,6-diphenyl-4,7-methano-1H-isoindole-1,3,8(2H)-trione] | 207 °C (dec.)
CC(C)(C)OC(=O)N[C@@H](CCCCN1C(=O)C2C3(C)C(=O)C(C)(C(c4ccccc4)=C3c3ccccc3)C2(Br)C1=O)C(=O)O (stereo partly drawn) [oCOm-27, (2S)-2-tert-butoxycarbonylamino-6-(3a-bromo-4,7-dimethyl-1,3,8-trioxo-5,6-diphenyl-1,3,3a,4,7,7a-hexahydro-2H-4,7-methanoisoindol-2-yl) hexanoic acid] | 87 to 92 °C

tested on: not listed separately; experiment: Solubility in water; format: physicochemical; conditions: water or physiological buffers

SMILES | solubility (in words)
CC12C(=O)C(C)(C(c3ccccc3)=C1c1ccccc1)C1(Br)C(=O)N(CCC(=O)NC(CO)(CO)CO)C(=O)C21 (stereo not shown) [oCOm-24, N-(2-Hydroxy-1,1-bis(hydroxymethyl)ethyl)-3-(3a-bromo-4,7-dimethyl-1,3,8-trioxo-5,6-diphenyl-3a,4,7,7a-tetrahydro-1H-4,7-methanoisoindol-2(2H)-yl)propanamide] | decreased solubility

same assay, conditions: water, 21° C.

SMILES | solubility [µg/mL]
CC12C(=O)C(C)(C(c3ccccc3)=C1c1ccccc1)C1(Br)C(=O)N(CCC(=O)NC(CO)(CO)CO)C(=O)C21 (stereo not shown) [oCOm-24, N-(2-Hydroxy-1,1-bis(hydroxymethyl)ethyl)-3-(3a-bromo-4,7-dimethyl-1,3,8-trioxo-5,6-diphenyl-3a,4,7,7a-tetrahydro-1H-4,7-methanoisoindol-2(2H)-yl)propanamide] | 5000 (≈ 8.18 mM)

tested on: MDCK cells; experiment: crystal violet cell adhesion (CVCA) cell toxicity assay; conditions: Canis lupus familiaris, MDCK, read-out: EC50 (μM), Active Compound

SMILES | EC50 [µM]
CN(C)C(=O)[C@@H](N)CCCCN1C(=O)C2C3(C)C(=O)C(C)(C(c4ccccc4)=C3c3ccccc3)C2(Br)C1=O (stereo partly drawn) [oCOM-36, N,N-Dimethyl (2S)-2-amino-6-(3a-bromo-4,7-dimethyl-1,3,8-trioxo-5,6-diphenyl-1,3,3a,4,7,7a-hexahydro-2H-4,7-methanoisoindol-2-yl)-hexanamide Trifluoroacetic Acid Salt] | > 100
CC12C(=O)C(C)(C(c3ccccc3)=C1c1ccccc1)C1(Br)C(=O)N(CCCCCC(=O)O)C(=O)C21 (stereo not shown) [oCOM-38, 6-(3a-bromo-4,7-dimethyl-1,3,8-trioxo-5,6-diphenyl-1,3,3a,4,7,7a-hexahydro-2H-4,7-methanoisoindol-2-yl)-hexanoic Acid] | > 100
COC(=O)[C@H](CCCCN1C(=O)C2C3(C)C(=O)C(C)(C(c4ccccc4)=C3c3ccccc3)C2(Br)C1=O)NC(C)=O (stereo partly drawn) [oCOM-41, Methyl (2S)-2-acetamido-6-(3a-bromo-4,7-dimethyl-1,3,8-trioxo-5,6-diphenyl-1,3,3a,4,7,7a-hexahydro-2H-4,7-methanoisoindol-2-yl)hexanoate] | > 100
Cc1noc([C@@H](N)CCCCN2C(=O)C3C4(C)C(=O)C(C)(C(c5ccccc5)=C4c4ccccc4)C3(Br)C2=O)n1 (stereo partly drawn) [oCOM-43, (1S)-1-amino-5-(3a-bromo-4,7-dimethyl-1,3,8-trioxo-5,6-diphenyl-1,3,3a,4,7,7a-hexahydro-2H-4,7-methanoisoindol-2-yl)-1-(3-methyl-1,2,4-oxadiazol-5-yl)pentane Trifluoroacetic Acid Salt] | > 100
Cc1nnc([C@@H](N)CCCCN2C(=O)C3C4(C)C(=O)C(C)(C(c5ccccc5)=C4c4ccccc4)C3(Br)C2=O)o1 (stereo partly drawn) [oCOM-45, (1S)-1-Amino-5-(3a-bromo-4,7-dimethyl-1,3,8-trioxo-5,6-diphenyl-1,3,3a,4,7,7a-hexahydro-2H-4,7-methanoisoindol-2-yl)-1-(5-methyl-1,3,-oxadiazol-2-yl)pentane Trifluoroacetic Acid Salt] | > 100
CC12C(=O)C(C)(C(c3ccccc3)=C1c1ccccc1)C1(Br)C(=O)N(CCC(=O)NC(CO)(CO)CO)C(=O)C21 (stereo not shown) [oCOm-24, N-(2-Hydroxy-1,1-bis(hydroxymethyl)ethyl)-3-(3a-bromo-4,7-dimethyl-1,3,8-trioxo-5,6-diphenyl-3a,4,7,7a-tetrahydro-1H-4,7-methanoisoindol-2(2H)-yl)propanamide] | > 100

same assay, conditions: Canis lupus familiaris, MDCK, read-out: EC50 (μM), Inactive Compound

SMILES | EC50 [µM]
Cc1c2c(c(C)c(-c3ccccc3)c1-c1ccccc1)C(=O)N(CCN)C2=O [BP-21, 2-(4,7-Dimethyl-1,3-dioxo-5,6-diphenylisoindolin-2-yl)ethanaminium 2,2,2-trifluoroacetate, reference compound] | 21

same assay, conditions: read-out: EC50 (μM), Inactive Compound; MDCK cells; inactive debromo or CO depleted analogues; 37° C.

SMILES | EC50 [µM]
Cc1c2c(c(C)c(-c3ccccc3)c1-c1ccccc1)C(=O)N(CCNCCN)C2=O [BP-23, 2-(2-(2-Aminoethyl)aminoethyl)-4,7-dimethyl-5,6-diphenyl-1H-isoindole-1,3,8(2H)-diione Bis-trifluoroacetate Salt] | > 100
